Experimental data published in US8871227B2, “Process and formulation containing epothilones and analogs thereof” (Bristol-Myers Squibb Company, priority 2003, dated 2014).

What was measured:
Assay type in all cases: physicochemical
[1] = Stability of aqueous solution: time for 5% drug loss (t95); settings: 25°
Experimental: The compounds represented by formulae I and II present challenges from the viewpoint of pharmaceutical compounding for administration to patients for a number of reasons. […] Of particular concern with the present invention, compounds of formulae I and II can degrade when exposed to low pH, e.g., certain compounds of formula I presumably are susceptible to acids catalyzed hydrolysis. For example, the time for 5% drug loss (t95) at 25° for an aqueous solution of compound II is approximately 2 h at pH 7, but less than 0.2 h at pH 2.5.

[2] = Infusion stability: loss of potency over six hour hold time after dilution in infusion fluid; settings: for loss of potency (degradation of active compound) / loss of potency (degradation in active compound): 0.2 mg/mL; for loss of potency (degradation of active compound): with buffer and base; for loss of potency (degradation in active compound): without buffer and base
Experimental: To illustrate the surprising advantages of the invention, a formulation including the compound of formula II was diluted in a 0.9% Sodium Chloride Injection infusion fluid to a concentration of 0.2 mg/mL, without buffer and base. […] As a further illustration, a formulation including the compound of formula II was diluted in a 5% dextrose injection fluid to a concentration of 0.2 mg/mL, without buffer and base.

[3] = pH of maximum stability
Text: The term, “pH of maximum stability,” or “maximum stability pH” means the pH at which a compound (or mixture of compounds) is least likely to degrade, or at which the compound (or mixtures of compounds) will degrade most slowly. Each compound or mixture of compounds will have a pH of maximum stability. However, the pH of maximum stability also may encompass a range of pH's. […] In this case, the pH of maximum stability is 7.1±1.
For example, in the embodiment involving use of the epothilone analog of formula II, the pH of maximum stability is about 7.0. A preferred dose of this epothilone analog when diluted in the infusion fluid is approximately in the range of about 0.05 to about 1.0 mg/mL, more preferably in the range of about 0.1 to about 0.8 mg/mL, and most preferably in the range of about 0.2 to about 0.6 mg/mL. The inventors herein have determined that for this epothilone analog and preferred dose, an advantageous buffer is sodium lactate, and a preferred concentration of this buffer in the formulation for administration is in the range of about 3 to about 30 mg/mL, more preferably in the range of about 10 to about 20 mg/mL, even more preferably at a concentration of about 15 mg/mL. […]

[4] = Degradation during dissolution and lyophilization; settings: tertiary butanol/water 1:1, lyophilized at −30° C. about 100 hours, dried at 25° C. about 35 hours, light protected
Experimental: [1S-[1R*,3R*(E),7R*,10S*,11R*,12R*,16S*]]-7,11-Dihydroxy-8,8,10,12,16-pentamethyl-3-[1-methyl-2-(2-methyl-4-thiazolyl)ethenyl]-4-aza-17-oxabicyclo[14.0]heptadecane-5,9-dione, 4.04 g, was wetted/partially dissolved with 500 mL of a 4:1 mixture of tertiary butanol and Water for Injection USP which had been pre-cooled to 5° C. Once the drug powder had become completely wetted, dissolution was completed by the addition of […] Water for Injection, thereby making the final solution a 1:1 mixture. The dissolution was carried out under protection from light.
The solution formed above was promptly lyophilized in a Virtis GENESIS lyophilizer at −30° C. under light protected conditions over a period of about 100 hours. The resultant lyophilized product (lyophile) was then further dried at 25° C. under high vacuum for about 35 hours. […] The lyophile was packaged under sterile conditions into 15 mL vials, each containing 20 mg of drug and standard excess to allow for vial/needle/syringe loss.

time for 5% drug loss (t95) ([1]; pH 2.5): less than 0.2 h | time for 5% drug loss (t95) ([1]; pH 7): approximately 2 h | loss of potency (degradation of active compound) ([2]; 0.9% Sodium Chloride Injection): about 3.6% | loss of potency (degradation in active compound) ([2]; 0.9% Sodium Chloride Injection): about 6% | enhancement in stability ([2]; 0.9% Sodium Chloride Injection, with vs without buffer and base): approximately 40% | loss of potency (degradation of active compound) ([2]; 5% dextrose injection fluid): about 4% | loss of potency (degradation in active compound) ([2]; 5% dextrose injection fluid): about 13% | enhancement of stability ([2]; 5% dextrose injection fluid, with vs without buffer and base): greater than 65% | pH of maximum stability [3]: about 7.0 | degradation of the drug during dissolution, lyophilization and drying [4]: No detectable degradation
SMILES: C/C(=C\c1csc(C)n1)C1CC2O[C@]2(C)CCC[C@H](C)[C@H](O)[C@@H](C)C(=O)C(C)(C)[C@@H](O)CC(=O)N1 (relative stereo) [II, [1S-[1R*,3R*(E),7R*,10S*,11R*,12R*,16S*]]7,11-Dihydroxy-8,8,10,12,16-pentamethyl-3-[1-methyl-2-(2-methyl-4-thiazolyl)ethenyl]-4-aza-7oxabicyclo[14.1.0]heptadecane-5,9-dione]
